Activity calls are given as the source filed them. No cut-off for these calls is given here.
Experiments:
[1] = system: THP-1; assay: Inhibition of cGAMP production in human THP-1 cells at 5 to 20 uM preincubated with compound for 36 hrs followed by HT-DNA addition and measured after 6 hrs by LC-MS analysis; type: functional, cell-based; details: dose 5-20 µM, time 42.0 hrs
[2] = biological target: T1, Protein cereblon/Cyclic GMP-AMP synthase (Homo sapiens, UniProt Q96SW2+Q8N884); assay: PROTAC activity at CRBN/cGAS in human THP-1 cells assessed as induction of cGAS degradation at 10 uM preincubated with 1-(6,7-dichloro-9-(1-methyl-1H-pyrazol-3-yl)-1,3,4,5-tetrahydro-2H-pyrido[4,3-b]indol-2-yl)-2-hydroxyethan-1-one for 2 hrs followed by compound addition and measured after 48 hrs by Western blot analysis; type: cell-based
T1 sequence (Q8N884 whole entry, looked up): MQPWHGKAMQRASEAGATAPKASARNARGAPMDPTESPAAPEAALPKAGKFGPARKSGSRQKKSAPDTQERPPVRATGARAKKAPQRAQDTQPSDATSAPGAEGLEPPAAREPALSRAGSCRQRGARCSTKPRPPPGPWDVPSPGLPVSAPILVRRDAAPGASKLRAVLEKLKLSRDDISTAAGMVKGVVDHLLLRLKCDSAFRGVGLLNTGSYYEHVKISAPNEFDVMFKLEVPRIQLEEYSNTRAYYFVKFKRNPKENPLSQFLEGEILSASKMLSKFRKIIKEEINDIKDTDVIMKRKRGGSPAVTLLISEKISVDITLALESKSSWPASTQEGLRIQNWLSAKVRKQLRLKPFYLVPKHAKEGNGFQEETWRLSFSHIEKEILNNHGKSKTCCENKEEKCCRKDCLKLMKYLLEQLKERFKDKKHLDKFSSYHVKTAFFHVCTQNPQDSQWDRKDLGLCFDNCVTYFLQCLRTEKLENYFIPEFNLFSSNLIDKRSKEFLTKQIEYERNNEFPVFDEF
T1 sequence (Q96SW2 whole entry, looked up): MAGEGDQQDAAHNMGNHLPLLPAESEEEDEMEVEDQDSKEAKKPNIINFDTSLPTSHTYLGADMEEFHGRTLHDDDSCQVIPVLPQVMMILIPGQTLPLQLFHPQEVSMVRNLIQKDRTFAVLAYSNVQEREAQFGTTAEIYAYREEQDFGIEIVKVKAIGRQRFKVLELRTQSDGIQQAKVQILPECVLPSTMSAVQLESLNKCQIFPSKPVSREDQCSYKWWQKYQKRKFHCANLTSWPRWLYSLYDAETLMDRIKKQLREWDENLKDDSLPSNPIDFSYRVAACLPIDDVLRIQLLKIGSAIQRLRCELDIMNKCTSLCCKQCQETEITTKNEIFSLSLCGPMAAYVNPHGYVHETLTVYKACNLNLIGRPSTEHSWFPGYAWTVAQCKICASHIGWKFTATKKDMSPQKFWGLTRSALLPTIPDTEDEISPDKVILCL

[3] = biological target: T1, Protein cereblon/Cyclic GMP-AMP synthase; assay: PROTAC activity at CRBN/cGAS in human THP-1 cells assessed as induction of cGAS degradation at 10 uM preincubated with compound for 40 hrs followed by HT-DNA stimulation and measured after 8 hrs by Western blot analysis relative to control; type: cell-based; details: time 48.0 hrs
[4] = system: THP-1; assay: Downregulation of IFNB mRNA expression level in cGAMP-induced human THP-1 cells at 20 uM preincubated with compound for 12 hrs followed by cGAMP addition and measured after 8 hrs by RT-qPCR analysis; type: functional, cell-based; details: time 20.0 hrs
[5] = system: Mus musculus; assay: (§1) Anti-inflammatory activity in DSS-induced ulcerative colitis C57BL/6 mouse model assessed as increase in colon length at 20 to 50 mg/kg/day, ip preadministered with DSS for 7 days followed by replacement with ultrapure water for 3 days with subsequent compound administration starting from day 4 to 10 and measured on day 11; type: functional, organism-based; details: dose 20-50 mg/kg/day, time 8.0 day
[6] = Clearance in male C57BL/6 mouse at 1 mg/kg, iv measured after 24 hrs by LC-MS/MS analysis; type: ADME, organism-based; details: in vivo
[7] = system: THP-1; assay: Downregulation of CXCL10 mRNA expression in human THP-1 cells preincubated with compound for 40 hrs followed by HT-DNA addition and measured after 8 hrs by qRT-PCR analysis; type: functional, cell-based; details: dose 1.25-10 µM, time 48.0 hrs
[8] = Cytotoxicity against human THP1-Lucia ISG cells assessed as reduction in cell viability upto 60 uM incubated for 48 hrs by CCK8 assay; type: toxicity, cell-based
[9] = system: RAW264.7; assay: Downregulation of IFNB mRNA expression in mouse RAW264.7 cells preincubated with compound for 40 hrs followed by HT-DNA addition and measured after 8 hrs by qRT-PCR analysis; type: functional, cell-based; details: dose 2.5-20 µM, time 48.0 hrs
[10] = biological target: T1, Protein cereblon/Cyclic GMP-AMP synthase; assay: PROTAC activity at CRBN/cGAS in human THP-1 cells assessed as induction of cGAS degradation at 10 uM preincubated with MG132 for 2 hrs followed by compound addition and measured after 48 hrs by Western blot analysis; type: cell-based
[11] = Cytotoxicity against human THP1-Lucia ISG cells assessed as reduction in cell viability at >30 uM incubated for 48 hrs by CCK8 assay; type: toxicity, cell-based
[12] = system: THP-1; assay: Inhibition of ds-DNA induced cGAS-STING signaling pathway in human THP-1 cells assessed as reduction in STING phosphorylation preincubated with compound for 40 hrs followed by HT-DNA addition and measured after 8 hrs by Western blot analysis; type: cell-based; details: dose 0.7-20 µM, time 48.0 hrs
[13] = MRT (0 to 24 hrs) in male C57BL/6 mouse at 1 mg/kg, iv measured after 24 hrs by LC-MS/MS analysis; type: ADME, organism-based; details: in vivo
[14] = system: Mus musculus; assay: as §1, with “improvement” for “increase”, “pathology” for “length”, “11 by H and E staining based analysis” for “11”; type: functional, organism-based; details: dose 20-50 mg/kg/day, time 8.0 day
[15] = Cytotoxicity against mouse RAW-Lucia ISG cells assessed as reduction in cell viability at >30 uM incubated for 48 hrs by CCK8 assay; type: toxicity, cell-based
[16] = biological target: T2, Protein cereblon/Cyclic GMP-AMP synthase (Mus musculus) (UniProt Q8C6L5+Q8C7D2); assay: In vivo inhibition of cGAS signaling pathway in DSS-induced ulcerative colitis C57BL/6 mouse model assessed as reduction in IRF3 phosphorylation level in colon preadministered with DSS for 7 days followed by replacement with ultrapure water for 3 days with subsequent intraperitoneal compound administration starting from day 4 to 10 and measured on day 11 by Western blot analysis; type: functional, organism-based; details: dose 20-50 mg/kg/day, route ip, time 8.0 day
T2 sequence (Q8C6L5 whole entry, looked up): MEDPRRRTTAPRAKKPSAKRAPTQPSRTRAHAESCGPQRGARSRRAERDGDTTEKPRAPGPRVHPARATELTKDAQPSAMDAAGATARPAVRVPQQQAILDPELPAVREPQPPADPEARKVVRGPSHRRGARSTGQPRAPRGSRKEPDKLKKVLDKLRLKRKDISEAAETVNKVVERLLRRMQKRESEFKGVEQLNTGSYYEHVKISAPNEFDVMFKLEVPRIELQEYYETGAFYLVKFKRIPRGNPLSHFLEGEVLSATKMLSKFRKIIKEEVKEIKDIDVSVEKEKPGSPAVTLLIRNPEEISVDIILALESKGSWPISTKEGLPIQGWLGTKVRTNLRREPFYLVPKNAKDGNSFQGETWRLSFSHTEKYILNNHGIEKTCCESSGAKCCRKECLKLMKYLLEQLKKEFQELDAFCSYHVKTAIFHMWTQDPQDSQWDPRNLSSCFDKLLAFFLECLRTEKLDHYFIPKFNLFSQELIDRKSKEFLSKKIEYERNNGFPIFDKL
T2 sequence (Q8C7D2 whole entry, looked up): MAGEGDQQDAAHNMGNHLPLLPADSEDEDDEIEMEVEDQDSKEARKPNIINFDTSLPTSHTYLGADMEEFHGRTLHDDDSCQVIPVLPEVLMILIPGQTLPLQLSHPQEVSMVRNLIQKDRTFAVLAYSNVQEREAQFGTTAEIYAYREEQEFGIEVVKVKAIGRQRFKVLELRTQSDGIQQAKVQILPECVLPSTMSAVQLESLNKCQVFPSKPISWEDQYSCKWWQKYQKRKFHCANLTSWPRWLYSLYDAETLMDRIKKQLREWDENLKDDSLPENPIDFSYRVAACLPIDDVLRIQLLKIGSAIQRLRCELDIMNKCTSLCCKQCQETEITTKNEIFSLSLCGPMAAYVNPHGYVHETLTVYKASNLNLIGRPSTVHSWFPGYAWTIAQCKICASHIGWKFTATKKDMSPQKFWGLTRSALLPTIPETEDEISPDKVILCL

[17] = AUC (0 to 24 hrs) in male C57BL/6 mouse at 20 mg/kg, ip measured after 24 hrs by LC-MS/MS analysis; type: ADME, organism-based; details: in vivo
[18] = system: RAW-Lucia ISG; assay: Potency index, ratio of 1-(6,7-dichloro-9-(1-methyl-1H-pyrazol-3-yl)-1,3,4,5-tetrahydro-2H-pyrido[4,3-b]indol-2-yl)-2-hydroxyethan-1-one IC50 to test compound IC50 for inhibition of dsDNA-induced cGAS signaling pathway in mouse RAW-Lucia ISG cells preincubated with compound for 24 hrs followed by HT-DNA addition and measured after 24 hrs by QUANTI-Luc luciferase reagent based assay; type: cell-based; details: time 48.0 hrs
[19] = system: Mus musculus; assay: as §1, with “reduction in IFNB mRNA level” for “increase”, “colon” for “colon length”, “11 by qRT-PCR analysis” for “11”; type: functional, organism-based; details: dose 20-50 mg/kg/day, time 8.0 day
[20] = Half-life in male C57BL/6 mouse at 20 mg/kg, ip measured after 24 hrs by LC-MS/MS analysis; type: ADME, organism-based; details: in vivo
[21] = system: THP-1; assay: Downregulation of IFNB mRNA expression in human THP-1 cells preincubated with compound for 40 hrs followed by HT-DNA addition and measured after 8 hrs by qRT-PCR analysis; type: functional, cell-based; details: dose 1.25-10 µM, time 48.0 hrs
[22] = biological target: T2, Protein cereblon/Cyclic GMP-AMP synthase (Mus musculus); assay: (§2) PROTAC activity at CRBN/cGAS in mouse RAW264.7 cells assessed as induction of cGAS degradation preincubated with compound for 40 hrs followed by HT-DNA stimulation and measured after 8 hrs by Western blot analysis; type: cell-based; details: time 48.0 hrs
[23] = biological target: Protein cereblon/Cyclic GMP-AMP synthase (Mus musculus, UniProt Q8C6L5+Q8C7D2); assay: as §2; type: cell-based
Chain of Protein cereblon/Cyclic GMP-AMP synthase (Mus musculus, UniProt Q8C6L5+Q8C7D2) (Q8C6L5 whole entry): as the sequence (Q8C6L5 whole entry, looked up) above
Chain of Protein cereblon/Cyclic GMP-AMP synthase (Mus musculus, UniProt Q8C6L5+Q8C7D2) (Q8C7D2 whole entry): as the sequence (Q8C7D2 whole entry, looked up) above

[24] = system: THP-1; assay: Inhibition of ds-DNA induced cGAS-STING signaling pathway in human THP-1 cells assessed as reduction in TBK1 phosphorylation preincubated with compound for 40 hrs followed by HT-DNA addition and measured after 8 hrs by Western blot analysis; type: cell-based; details: dose 0.7-20 µM, time 48.0 hrs
[25] = biological target: Cyclic GMP-AMP synthase (Homo sapiens) (UniProt Q8N884); assay: Inhibition of cGAMP-induced cGAS signaling pathway in human THP1-Lucia ISG cells at 0.2 to 20 uM preincubated with compound for 2 hrs followed by cGAMP addition and measured after 24 hrs by QUANTI-Luc luciferase reagent based assay; type: cell-based; details: dose 0.2-20 µM, time 26.0 hrs
Chain of Cyclic GMP-AMP synthase (Homo sapiens) (Q8N884 whole entry): as the sequence (Q8N884 whole entry, looked up) above

[26] = biological target: T1, Protein cereblon/Cyclic GMP-AMP synthase; assay: PROTAC activity at CRBN/cGAS in human THP-1 cells assessed as induction of cGAS degradation at 10 uM by Western blot analysis; type: cell-based; details: time 1-24 hrs
[27] = system: Mus musculus; assay: as §1, with “reduction in IL-6 secretion” for “increase”, “colon” for “colon length”, “11 by ELISA” for “11”; type: functional, organism-based; details: dose 20-50 mg/kg/day, time 8.0 day
[28] = system: RAW264.7; assay: Inhibition of ds-DNA induced cGAS-STING signaling pathway in mouse RAW264.7 cells assessed as reduction in STING phosphorylation preincubated with compound for 40 hrs followed by HT-DNA addition and measured after 8 hrs by Western blot analysis; type: cell-based; details: dose 0.7-20 µM, time 48.0 hrs
[29] = Drug distribution in male C57BL/6 mouse colon at 20 mg/kg, ip measured after 2 to 24 hrs by LC-MS/MS analysis; type: ADME, organism-based; details: in vivo, time 2-24 hrs

Question: With `Cn1ccc(-c2cc(Cl)c(Cl)c3[nH]c4c(c23)CN(C(=O)CNC(=O)CCCC#Cc2cccc3c2CN(C2CCC(=O)NC2=O)C3=O)CC4)n1` (centres undefined) as the compound, how does the inhibition [1] read?
Answer: The inhibition was “Active”.

Question: What about the Activity [2] of the same compound?
Answer: Its Activity is “inactive”.

Question: And the Activity [3]?
Answer: The Activity was 78.9%.

Question: And the Activity [4]?
Answer: The Activity was “inactive”.

Question: What about the Activity [5] of the same compound?
Answer: Its Activity is “Active”.

Question: What about the clearance [6] of the same compound?
Answer: The clearance was 31.7 mL/min/kg.

Question: And the Activity [7]?
Answer: Its Activity is “Dose-dependent-effect”.

Question: And the Activity [8]?
Answer: The Activity was “Non-toxic”.

Question: And the Activity [9]?
Answer: Its Activity is “Dose-dependent-effect”.

Question: And the Activity [10]?
Answer: Its Activity is “inactive”.

Question: What about the Activity [11] of the same compound?
Answer: Its Activity is “Toxic”.

Question: And the inhibition [12]?
Answer: Its inhibition is “Dose-dependent-effect”.

Question: And the MRT last at 24 h [13]?
Answer: Its MRT last at 24 h is 0.9 h.

Question: And the Activity [14]?
Answer: Its Activity is “Active”.

Question: What about the Activity [15] of the same compound?
Answer: The Activity was “Toxic”.

Question: What about the inhibition [16] of the same compound?
Answer: The inhibition was “Dose-dependent-effect”.

Question: What about the AUC(0-t) at 24 h [17] of the same compound?
Answer: Its AUC(0-t) at 24 h is 2020 ng·h/mL.

Question: What about the Ratio IC50 [18] of the same compound?
Answer: Its Ratio IC50 is 3.

Question: What about the Activity [19] of the same compound?
Answer: The Activity was “Active”.

Question: What about the half-life [20] of the same compound?
Answer: The half-life was 13.7 h.

Question: What about the Activity [21] of the same compound?
Answer: Its Activity is “Dose-dependent-effect”.

Question: What about the Activity [22] of the same compound?
Answer: Its Activity is “Dose-dependent-effect”.

Question: And the DC50 [23]?
Answer: The DC50 was 4.6 µM.

Question: What about the inhibition [24] of the same compound?
Answer: Its inhibition is “Dose-dependent-effect”.

Question: And the inhibition [25]?
Answer: The inhibition was “inactive”.

Question: What about the Activity [26] of the same compound?
Answer: Its Activity is “Time-dependent-effect”.

Question: And the Activity [27]?
Answer: The Activity was “Active”.

Question: And the inhibition [28]?
Answer: Its inhibition is “Dose-dependent-effect”.

Question: And the Drug uptake [29]?
Answer: The Drug uptake was “Active”.

From ChEMBL document CHEMBL6103619, “Discovery of a Novel CRBN-Recruiting cGAS PROTAC Degrader for the Treatment of Ulcerative Colitis” (J Med Chem, 2025)
